Measurements from paper PMC12512694, “PbrNAC34a- PbrMYB3/65- PbrACO2 cascade plays a role in citrate difference between the pericarp and cortex tissues of pear (P. bretschneideri Rehd.) fruit” (Molecular Horticulture, 2025).

Test system: PbrACO2
Conditions: citrate to isocitrate conversion; recombinant His-PbrACO2

Work on `O=C(O)CC(O)(CC(=O)O)C(=O)O` [citrate] yielded a Km of 630 µM.
